Tests used:
Type in all cases: functional
[1] = system: Botryosphaeria berengeriana; experiment: Antifungal activity against Physalospora piricola at 50 ug/ml
Bipolaris maydis = experiment: Antifungal activity against Bipolaris maydis at 50 ug/ml
Thanatephorus cucumeris = experiment: Antifungal activity against Rhizoctonia solani at 50 ug/ml
Botrytis cinerea = experiment: Antifungal activity against Botrytis cinereapers at 50 ug/ml
Fusarium graminearum = experiment: Antifungal activity against Gibberella zeae at 50 ug/ml

## CO/N=C(/C(=O)OC)c1ccccc1CSc1nnc(-c2ccc(OC)cc2)o1
[1]
  inhibition at 50 µg/mL: 93.8%
Bipolaris maydis
  inhibition at 50 µg/mL: 92.5%
Thanatephorus cucumeris
  inhibition at 50 µg/mL: 91.8%
Botrytis cinerea
  inhibition at 50 µg/mL: 94.2%
Fusarium graminearum
  inhibition at 50 µg/mL: 85.7%

## CO/N=C(/C(=O)OC)c1ccccc1CSc1nnc(-c2cccc(Cl)c2)o1
[1]
  inhibition at 50 µg/mL: 92.6%
Bipolaris maydis
  inhibition at 50 µg/mL: 90.9%
Thanatephorus cucumeris
  inhibition at 50 µg/mL: 94.4%
Botrytis cinerea
  inhibition at 50 µg/mL: 85.4%
Fusarium graminearum
  inhibition at 50 µg/mL: 96.9%

## CO/N=C(/C(=O)OC)c1ccccc1CSc1nnc(-c2ccc(C(F)(F)F)cc2)o1
[1]
  inhibition at 50 µg/mL: 100%
Bipolaris maydis
  inhibition at 50 µg/mL: 81.8%
Thanatephorus cucumeris
  inhibition at 50 µg/mL: 95.6%
Botrytis cinerea
  inhibition at 50 µg/mL: 84.6%
Fusarium graminearum
  inhibition at 50 µg/mL: 93.8%

## CO/N=C(/C(=O)OC)c1ccccc1CSc1nnc(-c2ccccc2F)o1
[1]
  inhibition at 50 µg/mL: 100%
Bipolaris maydis
  inhibition at 50 µg/mL: 92.3%
Thanatephorus cucumeris
  inhibition at 50 µg/mL: 92.6%
Botrytis cinerea
  inhibition at 50 µg/mL: 97.6%
Fusarium graminearum
  inhibition at 50 µg/mL: 98%

## CO/N=C(/C(=O)OC)c1ccccc1CSc1nnc(-c2cccc(Cl)c2Cl)o1
[1]
  inhibition at 50 µg/mL: 96.7%
Bipolaris maydis
  inhibition at 50 µg/mL: 84%
Thanatephorus cucumeris
  inhibition at 50 µg/mL: 91.6%
Botrytis cinerea
  inhibition at 50 µg/mL: 83.3%
Fusarium graminearum
  inhibition at 50 µg/mL: 84.3%

## CO/N=C(/C(=O)OC)c1ccccc1CSc1nnc(-c2ccc(Cl)cc2Cl)o1
[1]
  inhibition at 50 µg/mL: 88.9%
Bipolaris maydis
  inhibition at 50 µg/mL: 85.7%
Thanatephorus cucumeris
  inhibition at 50 µg/mL: 92.6%
Botrytis cinerea
  inhibition at 50 µg/mL: 98.8%
Fusarium graminearum
  inhibition at 50 µg/mL: 74.3%

## CO/N=C(/C(=O)OC)c1ccccc1CSc1nnc(-c2ccccc2I)o1
[1]
  inhibition at 50 µg/mL: 96.3%
Bipolaris maydis
  inhibition at 50 µg/mL: 86.4%
Thanatephorus cucumeris
  inhibition at 50 µg/mL: 90.2%
Botrytis cinerea
  inhibition at 50 µg/mL: 96.2%
Fusarium graminearum
  inhibition at 50 µg/mL: 98.4%

## CO/N=C(/C(=O)OC)c1ccccc1CSc1nnc(-c2cc(Cl)ccc2Cl)o1
[1]
  inhibition at 50 µg/mL: 100%
Bipolaris maydis
  inhibition at 50 µg/mL: 82.7%
Thanatephorus cucumeris
  inhibition at 50 µg/mL: 97%
Botrytis cinerea
  inhibition at 50 µg/mL: 88.5%
Fusarium graminearum
  inhibition at 50 µg/mL: 90.6%

## CO/N=C(/C(=O)OC)c1ccccc1CSc1nnc(-c2ccc(OCc3ccccc3)cc2)o1
[1]
  inhibition at 50 µg/mL: 96.9%
Bipolaris maydis
  inhibition at 50 µg/mL: 95%
Thanatephorus cucumeris
  inhibition at 50 µg/mL: 98%
Botrytis cinerea
  inhibition at 50 µg/mL: 90.6%
Fusarium graminearum
  inhibition at 50 µg/mL: 89.2%

## CO/N=C(/C(=O)OC)c1ccccc1CSc1nnc(-c2ccccc2)o1
[1]
  inhibition at 50 µg/mL: 94.9%
Bipolaris maydis
  inhibition at 50 µg/mL: 88%
Thanatephorus cucumeris
  inhibition at 50 µg/mL: 92.4%
Botrytis cinerea
  inhibition at 50 µg/mL: 97.6%
Fusarium graminearum
  inhibition at 50 µg/mL: 79.4%

## CO/N=C(/C(=O)OC)c1ccccc1CSc1nnc(-c2ccc(Br)cc2F)o1
[1]
  inhibition at 50 µg/mL: 100%
Bipolaris maydis
  inhibition at 50 µg/mL: 92.9%
Thanatephorus cucumeris
  inhibition at 50 µg/mL: 97.9%
Botrytis cinerea
  inhibition at 50 µg/mL: 100%
Fusarium graminearum
  inhibition at 50 µg/mL: 85.7%

## CO/N=C(/C(=O)OC)c1ccccc1CSc1nnc(-c2ccc(F)cc2)o1
[1]
  inhibition at 50 µg/mL: 100%
Bipolaris maydis
  inhibition at 50 µg/mL: 91.7%
Thanatephorus cucumeris
  inhibition at 50 µg/mL: 97.9%
Botrytis cinerea
  inhibition at 50 µg/mL: 100%
Fusarium graminearum
  inhibition at 50 µg/mL: 98.6%

## CO/N=C(/C(=O)OC)c1ccccc1CSc1nnc(-c2ccc([N+](=O)[O-])cc2)o1
[1]
  inhibition at 50 µg/mL: 96.3%
Bipolaris maydis
  inhibition at 50 µg/mL: 86.4%
Thanatephorus cucumeris
  inhibition at 50 µg/mL: 85.9%
Botrytis cinerea
  inhibition at 50 µg/mL: 88.5%
Fusarium graminearum
  inhibition at 50 µg/mL: 92.5%

## CO/N=C(/C(=O)OC)c1ccccc1CSc1nnc(-c2cccc(F)c2F)o1
[1]
  inhibition at 50 µg/mL: 100%
Bipolaris maydis
  inhibition at 50 µg/mL: 96.4%
Thanatephorus cucumeris
  inhibition at 50 µg/mL: 100%
Botrytis cinerea
  inhibition at 50 µg/mL: 100%
Fusarium graminearum
  inhibition at 50 µg/mL: 98.6%

## CO/N=C(/C(=O)OC)c1ccccc1CSc1nnc(-c2cc(F)c(Cl)cc2Cl)o1
[1]
  inhibition at 50 µg/mL: 100%
Bipolaris maydis
  inhibition at 50 µg/mL: 81.6%
Thanatephorus cucumeris
  inhibition at 50 µg/mL: 97.8%
Botrytis cinerea
  inhibition at 50 µg/mL: 98.8%
Fusarium graminearum
  inhibition at 50 µg/mL: 88.6%

## CO/N=C(/C(=O)OC)c1ccccc1COc1ccccc1C [KRESOXIM-METHYL]
[1]
  inhibition at 50 µg/mL: 98.5%
Bipolaris maydis
  inhibition at 50 µg/mL: 90.6%
Thanatephorus cucumeris
  inhibition at 50 µg/mL: 66.1%
Botrytis cinerea
  inhibition at 50 µg/mL: 97.2%
Fusarium graminearum
  inhibition at 50 µg/mL: 96.8%
